Experimental findings from ChEMBL document CHEMBL4020772, “Alkaloids from aerial parts of Houttuynia cordata and their anti-inflammatory activity” (Bioorg Med Chem Lett, 2017) are described below.

The test system of the assay is RAW264.7. Briefly: Antiinflammatory activity in mouse RAW264.7 cells assessed as reduction in LPS-induced NO production pretreated for 30 mins followed by LPS stimulation for 24 hrs by Griess assay. The class given is functional, cell-based.
For the compound `O=c1ccc2ccccc2[nH]1`, the IC50 (commonly the midpoint of a concentration-inhibition curve) was above 10 µM.
Take `C[S+]([O-])C[C@H]1O[C@@H](n2cnc3c(N)ncnc32)[C@H](O)[C@@H]1O` (some centres not stated): the IC50 was above 10 µM.
To `COCc1ccc(C=O)n1CCCC(=O)O` belongs above 10 µM; to `O=C(O)c1c[nH]c2ccccc12`, above 10 µM.
Consider `COc1cc2c(cc1O)CC1c3c(cc(OC)c(OC)c3-2)CCN1C` (configuration not stated), for which the half-inhibitory concentration (IC50) is above 10 µM.
The same measure for `COc1c(O)cc2c3c1-c1ccccc1CC3N(C)CC2` (configuration not stated): above 10 µM; for `COc1cc(CC2c3cc(O)c(OC)cc3CCN2C)ccc1O` (configuration not stated): above 10 µM; for `COc1c(O)cc2c3c1-c1ccccc1CC3NCC2` (configuration not stated): above 10 µM.
To `O=C(NC[C@@H](O[C@@H]1O[C@H](CO)[C@@H](O)[C@H](O)[C@H]1O)c1ccccc1)c1ccccc1` belongs above 10 µM; to `COc1cc2c(cc1O)CC1c3c(cc(OC)c(O)c3-2)CCN1C` (configuration not stated), above 10 µM; to `O=C(NC[C@@H](O)c1ccccc1)c1ccc(O)cc1`, above 10 µM.
In the case of `COc1cc2c(cc1O)CC1NCCc3cc(OC)c(OC)c-2c31` (configuration not stated), the IC50 is above 10 µM.
To `COc1cc2c(cc1O)CC1NCCc3cc(OC)c(O)c-2c31` (configuration not stated) belongs above 10 µM.
The same measure for `O[C@]12CO[C@@H](Cc3nccc4c3[nH]c3ccccc34)[C@H]1O2`: above 10 µM; for `O=C(NC[C@@H](O[C@@H]1O[C@H](CO)[C@@H](O)[C@H](O)[C@H]1O)c1ccccc1)c1cccc(O)c1`: above 10 µM.
Turning to `Nc1ncnc2c1ncn2[C@@H]1O[C@H](CO)[C@@H](O)[C@H]1O` [ADENOSINE], the IC50 is above 10 µM.
To `C[C@@H]1C[C@H]2[C@@H]3CCC4=CC(=O)C=C[C@]4(C)[C@@]3(F)[C@@H](O)C[C@]2(C)[C@@]1(O)C(=O)CO` [DEXAMETHASONE] belongs 7 µM.
To `NC(=O)c1cccnc1` [NIACINAMIDE] belongs above 10 µM.
Take `COc1c(O)cc2c3c(cc4ccccc4c13)NC(=O)C2=O` [NORARISTOLODIONE]: the IC50 is above 10 µM.
The same measure for `COc1cc2c3c(c1OC)-c1ccccc1CC3NCC2` (configuration not stated) [NORNUCIFERINE]: above 10 µM.
Take `OCc1ccc(-c2nccc3c2[nH]c2ccccc23)o1` [PERLOLYRIN]: the IC50 is 8.7 µM.
Regarding `O=c1ccn([C@@H]2O[C@H](CO)[C@@H](O)[C@H]2O)c(=O)[nH]1` [URIDINE], the half-maximal inhibitory concentration (IC50) was above 10 µM.
